Earlier results, collected in patent publication EP2739646B1, “COMPREHENSIVE BUFFER SYSTEM FOR RENATURING HUMAN PROINSULIN OR PROINSULIN DERIVATIVES” (Hermann, Stefan, priority 2011, dated 2012).
Read-outs that look alike come from different tables or passages of the source.

Tests used:
[1] = not given; remark: listed apart in the source

pKa ([1]; first value listed) | pKa ([1]; second value listed) | water solubility (at 25°C) [g/100g water] | pKa ([1]; third value listed) | Structure (SMILES) | water solubility (temperature not given) [g/100ml]
 |  | 16.5 |  | C[C@H](N)C(=O)O [alanine] | 
2.01 | 9.4 |  |  | N=C(N)NCCC[C@H](N)C(=O)O [arginine] | 

More lines, now with the values behind:

Structure (SMILES) | pKa ([1]; first value listed) | pKa ([1]; second value listed) | water solubility (at 25°C) [g/100g water] | pKa ([1]; third value listed) | water solubility (temperature not given) [g/100ml]
CCCCC(=O)O [valeric acid] |  |  |  |  | 4.97
O=C(O)[C@@H]1CCCN1 [proline] | 2.0 | 10.6 |  |  | 
O=C(O)CCCC(=O)O [glutaric acid] |  |  |  |  | 64.0
N[C@@H](CS)C(=O)O [cysteine] | 2.05 | 10.25 | > 50 | 8.00 | 
